Laboratory results taken from patent US20260215428A1, “WEED CONTROL METHOD” (SYNGENTA CROP PROTECTION AG, priority 2023, published 2026).

Legend:
Assay type in all cases: in vivo
[1] = test system: Digitaria sanguinalis; assay: Glasshouse post-emergence test, visual damage, Table B1-4; conditions: 14 days after application
Protocol: (§1) Seeds of a variety of test species are sown in standard soil in pots. For each treatment, three replicate pots containing 10-15 plants per one-inch pot were sprayed at the 2-3 leaf stage. Clethodim and Compound (Ic) were each applied at 15, 30, 60 and 120 g ai/ha. The test plants are then grown in a glasshouse under controlled conditions in a glasshouse (at 24/16° C., day/night; 14 hours light; 65% humidity) and watered twice daily. Plants were assessed for visual damage compared to the untreated control 14 days after application (0=0% damage; 100=100% damage).

[2] = test system: Setaria viridis; assay: Glasshouse post-emergence test, visual damage, Table B1-5; conditions: 14 days after application
Protocol: as §1

[3] = test system: Volunteer corn; assay: 26 field trials, control of volunteer corn, Table B1-6; conditions: 100 g/ha
[4] = test system: Eleusine indica; assay: Further glasshouse test versus other ACCase-inhibiting herbicides, Table B2-2; conditions: 21 days after application
Text: (§2) Further tests were employed to test the efficacy of a compound of Formula I versus other ACCase-inhibiting herbicides. The five main targets were Lolium multiflorum, Eleusine indica, Digitaria insularis, Sorghum halepense and Echinochloa crus-galli. Collectively, the populations contained all the major target-site resistance mutations affecting ACCase herbicides. Two L. multiflorum (LM-NTSR-1 and LM-NTSR-2) and one E. crus-galli (ECG-NTSR-1) populations were characterised exclusively by non-target-site resistance (“NTSR”). The target-site resistant L. multiflorum and E. indication populations were 100% homozygous for different ACCase mutations whilst the D. insularis, S. halepense and E. crus-galli samples contained a mixture of homozygous wild and mutant individuals at different genotypic frequencies. Additional underlying NTSR cannot be ruled out in the populations characterised by target-site resistance.
(§3) Around 50 seeds of each of the 24 weed populations were sown in 12-cm pots containing a mixture of peat and compost in a 1:1 ratio. The pots were watered, fertilised and kept in controlled glasshouse conditions set at 24° C./16 hr day, 18° C. night, 65% relative humidity, and a photon flux density of approximately 250 μmol quanta m^−2 s^−1 for Lolium multiflorum. The E. indica, D. insularis, S. halepense and E. crus-galli plants were kept in a separate glasshouse bay characterised by a 17 H photoperiod of 180 μmol m^−2 s^−1 with temperatures of 25° C. day and 19° C. night and 65% relative humidity. When the plants were at the two to four-leaf stage, they were treated with the various ACCase-inhibiting herbicides at 0, 15, 30, 60, 120 and 240 g ai ha^−1 in a spray cabinet mounted with a single mobile Teejet flat fan nozzle (11002VS) calibrated to deliver 200 L ha^−1 at 200 kPa. The L. multiflorum populations were treated by a compound of Formula Ic, clodinafop-propargyl, pinoxaden, cycloxydim and clethodim and the warm season grass weeds E. indica, D. insularis, S. halepense and E. crus-galli were sprayed with a Compound Ic and the commonly employed haloxyfop-methyl and clethodim. Three replicate pots were used per population. Plants were assessed for visual damage compared to the untreated control 21 days after application (0=0% damage; 100=100% damage).

[5] = test system: Sorghum halepense; assay: Further glasshouse test versus other ACCase-inhibiting herbicides, Table B2-4; conditions: 21 days after application
Text: as §2, §3

[6] = test system: Echinochloa Crus-galli; assay: Further glasshouse test versus other ACCase-inhibiting herbicides, Table B2-5; conditions: 21 days after application
Text: as §2, §3

Compound `CCSC(C)CC1CC(=O)C(/C(CC)=N/OC/C=C/Cl)=C(O)C1` (stereo not shown) [Clethodim, clethodim] has a visual damage ([1]; biotype I1781L (heterozygous), 15 g/ha) of 20%, a visual damage ([1]; biotype I1781L (heterozygous), 30 g/ha) of 20% and a visual damage ([1]; biotype I1781L (heterozygous), 60 g/ha) of 53%. It also gave a visual damage ([1]; biotype I1781L (heterozygous), 120 g/ha) of 67%, a visual damage ([1]; biotype Sensitive, 15 g/ha) of 87% and a visual damage ([1]; biotype Sensitive, 30 g/ha) of 90%. For the same compound, the visual damage ([1]; biotype Sensitive, 60 g/ha) was 100%, the visual damage ([1]; biotype Sensitive, 120 g/ha) was 100% and the visual damage ([2]; biotype GG2078 (homozygous), 15 g/ha) was 30%. For the same compound, the visual damage ([2]; biotype GG2078 (homozygous), 30 g/ha) was 60%, the visual damage ([2]; biotype GG2078 (homozygous), 60 g/ha) was 63% and the visual damage ([2]; biotype GG2078 (homozygous), 120 g/ha) was 67%. For the same compound, the visual damage ([2]; biotype II1781 (homozygous), 15 g/ha) was 80%, the visual damage ([2]; biotype II1781 (homozygous), 30 g/ha) was 100% and the visual damage ([2]; biotype II1781 (homozygous), 60 g/ha) was 100%. For the same compound, the visual damage ([2]; biotype II1781 (homozygous), 120 g/ha) was 100%, the visual damage ([2]; biotype LL1781 (homozygous), 15 g/ha) was 50% and the visual damage ([2]; biotype LL1781 (homozygous), 30 g/ha) was 60%. For the same compound, the visual damage ([2]; biotype LL1781 (homozygous), 60 g/ha) was 60%, the visual damage ([2]; biotype LL1781 (homozygous), 120 g/ha) was 53% and the visual damage ([2]; biotype Sensitive, 15 g/ha) was 90%. The visual damage ([2]; biotype Sensitive, 30 g/ha) was 98%, the visual damage ([2]; biotype Sensitive, 60 g/ha) was 100% and the visual damage ([2]; biotype Sensitive, 120 g/ha) was 100%. It also gave a Control (14d) ([3]; 14d) of 90%, a Control (28d) ([3]; 28d) of 96% and a visual damage ([4]; biotype D2078G, 15 g/ha) of 10%. The visual damage ([4]; biotype D2078G, 30 g/ha) was 27%, the visual damage ([4]; biotype D2078G, 60 g/ha) was 53% and the visual damage ([4]; biotype D2078G, 120 g/ha) was 100%. The visual damage ([4]; biotype D2078G, 240 g/ha) was 100%, the visual damage ([4]; biotype G2096A, 15 g/ha) was 7% and the visual damage ([4]; biotype G2096A, 30 g/ha) was 30%. The visual damage ([4]; biotype G2096A, 60 g/ha) was 78%, the visual damage ([4]; biotype G2096A, 120 g/ha) was 100% and the visual damage ([4]; biotype G2096A, 240 g/ha) was 100%. For the same compound, the visual damage ([4]; biotype I2041N, 15 g/ha) was 60%, the visual damage ([4]; biotype I2041N, 30 g/ha) was 27% and the visual damage ([4]; biotype I2041N, 60 g/ha) was 53%. The visual damage ([4]; biotype I2041N, 120 g/ha) was 100%, the visual damage ([4]; biotype I2041N, 240 g/ha) was 100% and the visual damage ([4]; biotype Sensitive, 15 g/ha) was 92%. It also gave a visual damage ([4]; biotype Sensitive, 30 g/ha) of 100%, a visual damage ([4]; biotype Sensitive, 60 g/ha) of 100% and a visual damage ([4]; biotype Sensitive, 120 g/ha) of 100%. The visual damage ([4]; biotype Sensitive, 240 g/ha) was 100%, the visual damage ([4]; biotype W2027C, 15 g/ha) was 93% and the visual damage ([4]; biotype W2027C, 30 g/ha) was 100%. For the same compound, the visual damage ([4]; biotype W2027C, 60 g/ha) was 100%, the visual damage ([4]; biotype W2027C, 120 g/ha) was 100% and the visual damage ([4]; biotype W2027C, 240 g/ha) was 100%. It also gave a visual damage ([5]; biotype Sensitive, 15 g/ha) of 83%, a visual damage ([5]; biotype Sensitive, 30 g/ha) of 98% and a visual damage ([5]; biotype Sensitive, 60 g/ha) of 100%. For the same compound, the visual damage ([5]; biotype Sensitive, 120 g/ha) was 93%, the visual damage ([5]; biotype Sensitive, 240 g/ha) was 98% and the visual damage ([5]; biotype W2027C, 15 g/ha) was 50%. For the same compound, the visual damage ([5]; biotype W2027C, 30 g/ha) was 92%, the visual damage ([5]; biotype W2027C, 60 g/ha) was 100% and the visual damage ([5]; biotype W2027C, 120 g/ha) was 100%. It also gave a visual damage ([5]; biotype W2027C, 240 g/ha) of 100%, a visual damage ([6]; biotype Sensitive, 15 g/ha) of 100% and a visual damage ([6]; biotype Sensitive, 30 g/ha) of 100%. It also gave a visual damage ([6]; biotype Sensitive, 60 g/ha) of 100%, a visual damage ([6]; biotype Sensitive, 120 g/ha) of 100% and a visual damage ([6]; biotype Sensitive, 240 g/ha) of 100%. It also gave a visual damage ([6]; biotype W2027C, 15 g/ha) of 83%, a visual damage ([6]; biotype W2027C, 30 g/ha) of 100% and a visual damage ([6]; biotype W2027C, 60 g/ha) of 100%. The visual damage ([6]; biotype W2027C, 120 g/ha) was 100%, the visual damage ([6]; biotype W2027C, 240 g/ha) was 100% and the visual damage ([6]; population ECG-NTSR-1 (non-target-site resistance), 15 g/ha) was 95%. The visual damage ([6]; population ECG-NTSR-1 (non-target-site resistance), 30 g/ha) was 98%, the visual damage ([6]; population ECG-NTSR-1 (non-target-site resistance), 60 g/ha) was 100% and the visual damage ([6]; population ECG-NTSR-1 (non-target-site resistance), 120 g/ha) was 100%. It also gave a visual damage ([6]; population ECG-NTSR-1 (non-target-site resistance), 240 g/ha) of 100%.
